Results as given in ChEMBL document CHEMBL4138203, “Recent developments in anti-Trichomonas research: An update review” (Eur J Med Chem, 2018).
In brackets after ≈: the same amount, converted by molar mass. Each block holds one molecule with its values, some of them ahead of it.

Experiments:
Trichomonas vaginalis [1] = experiment: Anti-Trichomonas activity against Trichomonas vaginalis by quantitative fluorescent method; type: functional
Homo sapiens [2] = organism: Homo sapiens; experiment: Spermicidal activity in human semen assessed as induction of sperm immobilization 0.0015% after 30 secs in presence of sapindus saponin
Trichomonas vaginalis [3] = experiment: Anti-Trichomonas activity against metronidazole-susceptible Trichomonas vaginalis ATCC 30236 after 24 hrs by hemocytometry; type: functional, organism-based; conditions: ATCC 30236, 24 h
Trichomonas vaginalis [4] = experiment: Anti-Trichomonas activity against metronidazole-resistant Trichomonas vaginalis after 48 hrs by trypan blue exclusion assay; type: functional
Homo sapiens [5] = organism: Homo sapiens; experiment: Spermicidal activity in human semen assessed as induction of sperm immobilization; type: functional
Trichomonas vaginalis [6] = experiment: Anti-Trichomonas activity against metronidazole-resistant Trichomonas vaginalis JT after 48 hrs by hemocytometry; type: functional, organism-based
Trichomonas vaginalis [7] = experiment: Anti-Trichomonas activity against Trichomonas vaginalis; type: functional, organism-based
Trichomonas vaginalis [8] = experiment: Anti-Trichomonas activity against metronidazole-susceptible Trichomonas vaginalis after 48 hrs by trypan blue exclusion assay; type: functional
Trichomonas vaginalis [9] = experiment: Anti-Trichomonas activity against metronidazole-resistant Trichomonas vaginalis IR78 ATCC 50138 cultured in TYI-S-33 media assessed as reduction in parasite growth after 30 mins by haemocytometry; type: functional, organism-based; conditions: IR78 ATCC 50138, 0.5 h
Trichomonas vaginalis [10] = experiment: Anti-Trichomonas activity against metronidazole-resistant Trichomonas vaginalis IR78 ATCC 50138 cultured in PBS/BSA media assessed as reduction in parasite growth after 30 mins by haemocytometry; type: functional, organism-based; conditions: IR78 ATCC 50138, 0.5 h
Trichomonas vaginalis [11] = experiment: Anti-Trichomonas activity against Trichomonas vaginalis after 24 hrs by inverted microscopic analysis; type: functional
Trichomonas vaginalis [12] = experiment: Anti-Trichomonas activity against Trichomonas vaginalis isolate 1 at 250 uM after 48 hrs by microscopic analysis; type: functional; conditions: isolate 1, 48 h
Trichomonas vaginalis [13] = experiment: Anti-Trichomonas activity against Trichomonas vaginalis isolate 2 at 250 uM after 48 hrs by microscopic analysis; type: functional; conditions: isolate 2, 48 h
Trichomonas vaginalis [14] = experiment: Anti-Trichomonas activity against Metronidazole-resistant Trichomonas vaginalis 085 ATCC 50143 after 48 hrs by inverted microscopic analysis; type: functional; conditions: 085 ATCC 50143, 48 h
Trichomonas vaginalis [15] = experiment: Anti-Trichomonas activity against Trichomonas vaginalis JT assessed as reduction in parasite growth after 24 hrs by haemocytometry; type: functional, organism-based
Trichomonas vaginalis [16] = experiment: Anti-Trichomonas activity against Trichomonas vaginalis JT assessed as reduction in parasite growth after 48 hrs by haemocytometry; type: functional, organism-based
Trichomonas vaginalis [17] = experiment: Anti-Trichomonas activity against metronidazole-susceptible Trichomonas vaginalis ATCC 30001 assessed as inhibition of parasite growth at 5.5 mM measured at 5 to 60 mins in presence of NH4Cl by trypan blue-based assay; type: functional
Trichomonas vaginalis [18] = experiment: Anti-Trichomonas activity against metronidazole-resistant Trichomonas vaginalis ATCC 50138 assessed as inhibition of parasite growth at 5.5 mM measured at 5 to 60 mins in presence of NH4Cl by trypan blue-based assay; type: functional
Trichomonas vaginalis [19] = experiment: Anti-Trichomonas activity against Metronidazole-resistant Trichomonas vaginalis isolate 085 ATCC 50143 infected in Swiss Webster mouse at 25 mg/kg, po dosed for 4 days measured at 24 hrs post last dose by microscopic analysis; type: functional
Trichomonas vaginalis [20] = experiment: Potency index, ratio of Metronidazole MIC to compound MIC for anti-trichomonas activity against Metronidazole-resistant Trichomonas vaginalis 085 ATCC 50143; type: functional
Trichomonas vaginalis [21] = experiment: Anti-Trichomonas activity against Trichomonas vaginalis at 100 uM; type: functional
[22] = Trichomonas vaginalis, read-out: MIC

SMILES: C[C@H]1[C@H](C)CC[C@]2(C(=O)O[C@@H]3O[C@H](CO)[C@@H](O)[C@H](O)[C@H]3O)CC[C@]3(C)C(=CC[C@@H]4[C@@]5(C)CC[C@H](O[C@@H]6O[C@H](CO[C@@H]7O[C@@H](C)[C@H](O)[C@@H](O)[C@H]7O[C@@H]7O[C@H](CO)[C@@H](O)[C@H](O)[C@H]7O)[C@@H](O)[C@@H]6O)C(C)(C)[C@@H]5CC[C@]43C)[C@H]12
MIC (Trichomonas vaginalis [1]): 0.05%

SMILES: O=C(SCC(CN1CCCC1)SSC(CSC(=O)N1CCCCC1)CN1CCCC1)N1CCCCC1 (centres undefined)
Activity (Homo sapiens [2]): 100%

SMILES: FC(F)(F)c1ccc(OC(CCN2CCCC2)c2ccccc2)cc1 (centres undefined)
MIC (Trichomonas vaginalis [4]): 12.5 to 50 µg/mL | MEC (Homo sapiens [5]): 1%

SMILES: OC1(c2ccc(-c3ccccc3)cc2)CN2CCC1CC2 (centres undefined)
IC50 (Trichomonas vaginalis [6]): 46 µM

SMILES: CC(C)=CCC/C(C)=C/CO [GERANIOL]
IC50 (Trichomonas vaginalis [7]; Trichomonas vaginalis): 171 µg/mL (≈ 1110 µM)

SMILES: C1CCNCC1.S=C(S)N1CCCC1 [listing 1 of 2 here]
MIC (Trichomonas vaginalis [4]): 7.8 µg/mL | MIC (Trichomonas vaginalis [8]): 1.56 µg/mL

SMILES: COc1cc2c(c(OC)c1C(=O)C(C)C)C=CC(C)(C)O2
IC50 (Trichomonas vaginalis [3]): 226 µM

SMILES: CC1(C)CC[C@]2(C(=O)O)CC[C@]3(C)C(=CC[C@@H]4[C@@]5(C)CC[C@H](O[C@@H]6[C@@H](O)[C@H](O[C@@H]7O[C@H](CO)[C@@H](O)[C@H](O)[C@H]7O)O[C@H](CO)[C@H]6O)C(C)(C)[C@@H]5CC[C@]43C)[C@@H]2C1
MIC (Trichomonas vaginalis [7]): 0.25%

SMILES: CCCCCCCCN=c1ccn(CCCCCCCCCCn2ccc(=NCCCCCCCC)cc2)cc1.Cl.Cl [OCTENIDINE HYDROCHLORIDE]
EC50 (Trichomonas vaginalis [9]): 0.68 to 2.11 µg/mL | EC50 (Trichomonas vaginalis [10]): 0.68 to 2.11 µg/mL

SMILES: CCCCCCCCCCCCCCCC(=O)O [PALMITIC ACID]
MIC (Trichomonas vaginalis [7]; [22]): 500 to 1000 µg/mL (≈ 1950 to 3900 µM)

SMILES: Cc1ncc([N+](=O)[O-])n1CCO [METRONIDAZOLE]
MIC (Trichomonas vaginalis [4]): 1 to 111 µM | MEC (Homo sapiens [5]): 1%

SMILES: C1CCNC1.S=C(S)N1CCCC1 [listing 1 of 2 here]
MEC (Homo sapiens [5]): 145 µM

SMILES: C[C@@H](CCC1(O)OC2CC3C4C[C@H](O[C@H]5O[C@@H](C)[C@H](O)[C@@H](O[C@H]6O[C@@H](C)[C@H](O)[C@@H](O)[C@@H]6O)[C@@H]5O)[C@H]5CC(O)CC[C@]5(C)C4CC[C@]3(C)C2[C@@H]1C)CO[C@@H]1O[C@H](CO)[C@@H](O)[C@H](O)[C@H]1O (some centres undefined)
MIC (Trichomonas vaginalis [11]): 6.25 to 50 µM (≈ 5.66 to 45.3 µg/mL)

SMILES: CCCCCCCCCCCC(=O)O[C@H]1C=C2CCN3Cc4cc5c(cc4[C@H]([C@@H]1O)[C@@H]23)OCO5
inhibition at 250 µM (Trichomonas vaginalis [12]): 100% | inhibition at 250 µM (Trichomonas vaginalis [13]): 100%

SMILES: C1CCNCC1.S=C(S)N1CCCC1 [listing 2 of 2 here]
MEC (Homo sapiens [5]): 61.5 mg/L

SMILES: CCCCCCCCCCCCCCCCCCCCCCCC
MIC (Trichomonas vaginalis [7]; [22]): 500 to 1000 µg/mL (≈ 1480 to 2950 µM)

SMILES: C1CCNC1.S=C(S)N1CCCC1 [listing 2 of 2 here]
MIC (Trichomonas vaginalis [4]): 13.5 µM | MIC (Trichomonas vaginalis [8]): 5.25 µM

SMILES: CCCCCCCCCCCCCCCCOP(=O)([O-])OCC[N+](C)(C)C [MILTEFOSINE]
MIC (Trichomonas vaginalis [14]): 145 µM (≈ 59.1 µg/mL) | IC50 (Trichomonas vaginalis [15]): 14.5 µM | IC50 (Trichomonas vaginalis [16]): 20 µM

SMILES: COc1c2c(cc(O)c1C(=O)C(C)C)OC(C)(C)C=C2
IC50 (Trichomonas vaginalis [3]): 834 µM

SMILES: O=S(=O)(O)CCNCl
inhibition at 5500 µM (Trichomonas vaginalis [17]): 100% | inhibition at 5500 µM (Trichomonas vaginalis [18]): 100%

SMILES: CC1(C)CC[C@]2(C(=O)O)[C@H](O)C[C@]3(C)C(=CC[C@@H]4[C@@]5(C)CC[C@H](O[C@@H]6O[C@H](C(=O)O)[C@@H](O)[C@H](O)[C@H]6O)[C@@](C)(C=O)[C@@H]5CC[C@]43C)[C@@H]2C1
MIC (Trichomonas vaginalis [7]): 0.025%

SMILES: N#CCCCN1CCN(C(=S)SSC(=S)N2CCN(CCCC#N)CC2)CC1
MIC (Trichomonas vaginalis [4]): 3.12 to 50 µg/mL

SMILES: c1cc(CCCc2ccc(-c3nc4ccccc4[nH]3)cc2)cc(-c2nc3ccccc3[nH]2)c1
MIC (Trichomonas vaginalis [14]): 26 µM (≈ 11.1 µg/mL) | Activity (Trichomonas vaginalis [19]): 100% | Ratio (Trichomonas vaginalis [20]): 5.5

SMILES: C[C@H]1CC[C@]2(NC1)O[C@H]1C[C@H]3[C@@H]4CC[C@H]5C[C@@H](O[C@@H]6O[C@H](CO)[C@H](O[C@@H]7O[C@H](CO)[C@@H](O)[C@H](O[C@@H]8OC[C@@H](O)[C@H](O)[C@H]8O)[C@H]7O[C@@H]7O[C@H](CO)[C@@H](O)[C@H](O)[C@H]7O)[C@H](O)[C@H]6O)CC[C@]5(C)[C@H]4CC[C@]3(C)[C@H]1[C@@H]2C [TOMATINE]
inhibition at 100 µM (Trichomonas vaginalis [21]): 103%

Continued, in another order:

IC50 (Trichomonas vaginalis [3]): 1230 µM
SMILES: COc1cc2c(c(O)c1C(=O)C(C)C)C=CC(C)(C)O2

MIC (Trichomonas vaginalis [7]; [22]): > 2000 µg/mL
SMILES: Oc1cc(O)c2c(c1)O[C@H](c1ccc(O)c(O)c1)[C@H](O[C@]1(c3ccc(O)c(O)c3)Oc3cc(O)cc(O)c3[C@H](O)[C@H]1O)C2

MIC (Trichomonas vaginalis [11]): 12.5 µM (≈ 7.11 µg/mL)
SMILES: COC(=O)C1=CC[C@@H](O[C@@H]2O[C@H](CO)[C@@H](O)[C@H](O)[C@H]2O)C(CCC=O)[C@@H]1CC(=O)OCCc1ccc(O)c(O)c1 (some centres undefined)

MIC (Trichomonas vaginalis [11]): 6.25 µM (≈ 3.59 µg/mL)
SMILES: C=C(CO[C@@H]1O[C@H](CO)[C@@H](O)[C@H](O)[C@H]1O)[C@@H]1Cc2c(ccc3c2O[C@H]2COc4cc(OC)c(OC)cc4[C@H]2[C@@H]3O)O1

MIC (Trichomonas vaginalis [11]): 12.5 µM (≈ 7.71 µg/mL)
SMILES: COC(=O)C1=CO[C@@H](O[C@@H]2O[C@H](CO)[C@@H](O)[C@H](O)[C@H]2O)[C@H]2[C@@H]1C=C[C@@]21C=C([C@H](C)OC(=O)/C=C/c2ccc(O)cc2)C(=O)O1

MIC (Trichomonas vaginalis [7]; [22]): 20 µg/mL (≈ 55.5 µM)
SMILES: O=C(/C=C/c1ccc(O)c(O)c1)O[C@H](Cc1ccc(O)c(O)c1)C(=O)O [ROSMARINIC ACID]

MIC (Trichomonas vaginalis [4]): 14 µg/mL
SMILES: CN(CCC(Oc1ccc(C(F)(F)F)cc1)c1ccccc1)C(=S)SCN1CCCC1 (centres undefined)
MEC (Homo sapiens [5]): 0.05%

MIC (Trichomonas vaginalis [7]; [22]): > 2000 µg/mL
SMILES: Oc1cc(O)c2c(c1)O[C@H](c1cc(O)c(O)c(O)c1)[C@@H](O)[C@@H]2c1c(O)cc(O)c2c1O[C@H](c1cc(O)c(O)c(O)c1)[C@@H](O)C2

MIC (Trichomonas vaginalis [7]; [22]): 500 µg/mL (≈ 1840 µM)
SMILES: OC[C@H]1O[C@@H](Oc2ccc(O)cc2)[C@H](O)[C@@H](O)[C@@H]1O [ARBUTIN]

EC50 (Trichomonas vaginalis [7]; Trichomonas vaginalis): 100 µg/mL (≈ 271 µM)
SMILES: COc1cc(/C=C/C(=O)CC(=O)/C=C/c2ccc(O)c(OC)c2)ccc1O [CURCUMIN]

IC50 (Trichomonas vaginalis [3]): 122 µM
SMILES: CC(C)C(=O)C1=C(O)C(Cc2c(O)c3c(c(C(=O)C(C)C)c2O)OC(C)(C)C=C3)=C(O)C(C)(C)C1=O

MIC (Trichomonas vaginalis [11]): 6.25 to 50 µM (≈ 5.64 to 45.2 µg/mL)
SMILES: C[C@@H](CCC1(O)OC2CC3C4C[C@H](O[C@H]5O[C@@H](C)[C@H](O)[C@@H](O[C@H]6O[C@@H](C)[C@H](O)[C@@H](O)[C@@H]6O)[C@@H]5O)[C@H]5CC(=O)CC[C@]5(C)C4CC[C@]3(C)C2[C@@H]1C)CO[C@@H]1O[C@H](CO)[C@@H](O)[C@H](O)[C@H]1O (some centres undefined)

MIC (Trichomonas vaginalis [11]): 6.25 µM (≈ 3.42 µg/mL)
SMILES: COC(=O)C1=CO[C@H](O[C@@H]2O[C@H](CO)[C@@H](O)[C@H](O)[C@H]2O)[C@@]2(C)[C@@H](C)OC(=O)C(C)(C)[C@@H](C)OC(=O)C[C@@]12C
